# Data: patent US20240076347A1, “METHODS FOR PREVENTING FUNGAL INFECTIONS” (Cidara Therapeutics, Inc., priority 2016, published 2024)
# Values joined by “and” are separate entries in the source; they are usually repeats but may differ in a detail not shown here. Identical values can stand only once. Like-named read-outs stand apart in the source and are kept apart here. Numbered stars: 1 amine (or outer) side, 2 acyl side, 3 side chain; on linkers, the order of the positions; unused ones are H or OH. Bridge positions count the residues as written; N and C are the ends. Square brackets hold non-standard residues; d marks the D form. Peptide text beside a SMILES is read from it. * marks the point of attachment. ξ: configuration not given here. Orn(4R-OH,5R-OCH2CH2NMe3+) = C[N+](C)(C)CCO[C@@H](N[*:3])[C@H](O)C[C@H](N[*:1])C(=O)[*:2]; pTerphenylCO(4''-OnC5H11) = CCCCCOc1ccc(-c2ccc(-c3ccc(C(=O)*)cc3)cc2)cc1; hTyr(3S-OH,4S-OH) = N[C@H](C(=O)O)[C@H](O)[C@@H](O)c1ccc(O)cc1; X1 = C[C@H]1CN([*:1])C(C(=O)[*:2])C1O; Hyp = O=C(O)[C@@H]1C[C@@H](O)CN1; ξT = CC(O)C(N)C(=O)O
# Key:
# Format in all cases: in vivo
# Candida albicans SC5314 = assay: Immunocompetent DBA/2 mouse model of disseminated candidiasis, treatment, kidney CFU; conditions: 24 hr
# Method: The efficacy of CD101 SC was studied in an immunocompetent DBA/2 mouse model of disseminated candidiasis. Mice (5/grp) were challenged with Candida albicans SC5314 (ATCC: MYA-2876, fluconazole-sensitive human clinical isolate shown to be pathogenic in mice) via IV injection (100 μL, 5.0 log CFU/mouse) and treated with CD101 SC (1, 3 or 10 mg/kg). Micafungin via IP administration was tested as a positive control at the same 3 doses. At 24 hours following challenge, kidneys were harvested and processed for CFU enumeration. All comparisons were made between the treatment and time-matched vehicle groups.
# [1] = Plasma and lung epithelial lining fluid (ELF) pharmacokinetics in ICR mice; conditions: 20 mg/kg IP; for Kp: ip, 20 mg/kg
# Method: At pre-dose, 1, 3, 6, 12, 24, 48, and 72 hours post-dose, 3 mice/timepoint were anesthetized/euthanized for blood collection (plasma) and bronchoalveolar lavage fluid (BALF) collection with 2×0.5 mL flushes of saline. Urea levels for plasma/BALF normalization for the volume of lung epithelial lining fluid (ELF) calculation were quantified using a commercially-available spectrophotometry-based assay. CD101 concentrations in plasma/BALF samples were measured by LC with electrospray ionization tandem mass spectrometric (LC-MS/MS) detection.
# Urea for plasma/BALF normalization for ELF volume were quantified using spectrophotometry. CD101 concentrations in plasma/BALF samples were measured by LC-MS/MS. Total plasma concentrations were corrected for protein binding (99.2%).
# [2] = test system: Aspergillus fumigatus (strain AF293); assay: Murine model of pulmonary aspergillosis (Example 9), survival and lung burden; conditions: for Group Geometric mean / Log10 Group Geometric mean / Log10 reduction from vehicle control: terminal lung burden
# Method: Animal Strain and Housing. Mice used in these studies were supplied by Charles River (Margate UK) and were specific pathogen free. The strain of mice used was ICR (also known as CD1 Mice) which is a well characterized outbred murine strain. Male mice were 11-15 g on receipt at our facility and allowed to acclimatize for at least seven days.
# Immunosuppression. Mice were immunosuppressed on Day −4 with 150 mg/kg cyclophosphamide IP, and on Day −1 with 150 mg/kg cyclophosphamide IP and 175 mg/kg cortisone acetate SC. To prevent bacterial infection due to the immunosuppression mice were given 50 mg/kg/day ceftazidime.
# Preparation of Organism and Infection. A. fumigatus strain AF293 inoculum was prepared from spore cultures grown on Sabouraud Dextrose agar (SAB) containing 50 μg/mL chloramphenicol (SABC) in vented tissue culture flasks. Following incubation for 7-10 days at 30° C., spore cultures were washed in sterile phosphate buffered saline (PBS) containing 0.05% Tween 80. Spore count was determined using a haemocytometer and spores were diluted in PBS to ˜6.9×10^6 CFU/mL. Inoculum concentration was confirmed by quantitative culture onto SABC agar. Neutropenic mice lungs were infected with 0.04 mL (0.02 mL/nares) of ˜6.9×10^6 CFU/mL (˜2.8×10^5 cfu/mouse) of A. fumigatus strain AF293 by intranasal (IN) instillation under temporary 2.5% isoflurane induced anesthesia.
# Preparation of Test Articles. Micafungin was provided as a 50 mg vial (Lot 02323002, expiry 08/2017) and was prepared as per manufacturer instructions by adding 5 mL saline for injection (SFI) directly into the vial to make a 10 mg/mL stock solution. This solution was then diluted further in SFI to a working concentration of 0.2 mg/mL. The compound was administered IP at 10 mL/kg to achieve a 2 mg/kg dose. It was prepared fresh once and stored at 4° C. between doses.
# Test article CD101 stock was prepared at 2 mg/mL in 10% DMSO/1% Tween 20 diluent. A clear non particulate solution was obtained following gentle mixing. The stock was kept at 4° C. until required. Study doses of 5 mg/kg (0.5 mg/mL) and 10 mg/kg (1 mg/mL) were prepared from the 2 mg/mL stock as required by diluting in 10% DMSO/1% Tween 20 diluent. The 2 mg/mL stock was used undiluted for the 20 mg/kg study dose. All doses were administered IP at 10 mL/kg.
# Treatment. For this study, treatments were initiated on day five pre-infection according to treatment groups outlined in Table 15. A total of 78 mice (six mice per treatment group) were used in the study.
# Endpoints. The primary endpoint for this study was survival within agreed ethical limits (>20% weight loss, severe hypothermia <34° C., inability to reach food or drink, severe hunching). Mice were monitored by daily weight measurements with observations as frequently as clinical condition required. Mice presenting with severe clinical deterioration were humanely euthanized using an overdose of pentobarbitone administered by IP injection following clinical assessment and the time of death was recorded. Animal carcasses were stored at −20° C. for assessment of burden. Ten days post infection all surviving animals were weighed and had their clinical condition assessed prior to being euthanized. Final survival numbers were recorded and analyzed as described below and carcasses frozen at −20° C. prior to further processing.
# A secondary endpoint for the study was terminal lung tissue burden. Immediately following confirmation of death, carcasses were frozen at −20° C. prior to tissue dissection and processing. The frozen carcasses were thawed at room temperature and the lungs removed and placed into pre-weighed bead-beating tubes containing 2 mL of PBS and subjected to mechanical disruption. Organ homogenates were diluted further in PBS and quantitatively cultured for A. fumigatus onto SABC and incubated at 30° C. for 24-48 hours. […]
# [3] = 5 mg/kg IP Day 0 (1 h post infection)
smiles,measurement,setting,value
"CCCCCOc1ccc(-c2ccc(-c3ccc(C(=O)N[C@H]4C[C@@H](O)[C@@H](OCC[N+](C)(C)C)NC(=O)C5C(O)[C@@H](C)CN5C(=O)[C@H]([C@@H](C)O)NC(=O)[C@H]([C@H](O)[C@@H](O)c5ccc(O)cc5)NC(=O)[C@@H]5C[C@@H](O)CN5C(=O)C(C(C)O)NC4=O)cc3)cc2)cc1 (stereo partly drawn) [CD101] ({pTerphenylCO(4''-OnC5H11)}-[Orn(4R-OH,5R-OCH2CH2NMe3+)][ξT][Hyp][hTyr(3S-OH,4S-OH)]T[X1]; lactam 1-C)",animals completely cleared of CFU burden,Candida albicans SC5314; 1 mg/kg SC,4 of 5
same,kidney CFU,"Candida albicans SC5314; 1, 3 and 10 mg/kg SC, vs vehicle",significant reduction in kidney CFU
same,kidney CFU,Candida albicans SC5314; 3 or 10 mg/kg SC,complete CFU clearance
same,mean maximum ELF concentration,[1],15.1 µg/mL
same,mean maximum plasma concentration,[1],30.1 µg/mL
same,time of maximum ELF concentration,[1],6 h and 4 h
same,time of maximum plasma concentration,[1]; first collection timepoint,1 h
same,concentration at 72 h,"[1]; ICR, mouse, lung epithelial lining fluid (ELF), intraperitoneal, at 72 h",4000 ng/mL
same,Kp,"[1]; ICR, mouse, lung epithelial lining fluid (ELF), free-drug (protein binding 99.2%), read-out: ELF/Plasma AUC ratio",100
same,Kp,"[1]; ICR, mouse, lung epithelial lining fluid (ELF), read-out: AUC exposure ratios of ELF/plasma",0.8 to 0.95
same,Kp,"[1]; ICR, mouse, lung epithelial lining fluid (ELF), total-drug, read-out: ELF/Plasma AUC ratio",0.8
same,half-life,"[1]; ICR, mouse, lung epithelial lining fluid (ELF), read-out: ELF half-life (converted)",31.9 h
same,AUC(0-t),"[1]; ICR, mouse, lung epithelial lining fluid (ELF), read-out: mean ELF AUC0-72",606 µg·h/mL
same,AUC(0-inf),"[1]; ICR, mouse, lung epithelial lining fluid (ELF), read-out: mean ELF AUCinf",802 µg·h/mL
same,AUC(0-t),"[1]; ICR, mouse, plasma, read-out: mean plasma AUC0-72",762 µg·h/mL
same,AUC(0-inf),"[1]; ICR, mouse, plasma, read-out: mean plasma AUCinf",848 µg·h/mL
same,half-life,"[1]; ICR, mouse, plasma, read-out: plasma half-life (converted)",21.1 h
same,Mean Survival,[2]; [3],67.8 h
same,Median Survival,[2]; [3],64.6 h
same,Mean Survival,[2]; 5 mg/kg IP Day −1,72.1 h
same,Median Survival,[2]; 5 mg/kg IP Day −1,67.6 h
same,Mean Survival,[2]; 5 mg/kg IP Day −3,70.0 h
same,Median Survival,[2]; 5 mg/kg IP Day −3,67.7 h
same,Mean Survival,[2]; 5 mg/kg IP Day −5,65.3 h
same,Median Survival,[2]; 5 mg/kg IP Day −5,65.3 h
same,Mean Survival,[2]; 10 mg/kg IP Day −1,121.8 h
same,Median Survival,[2]; 10 mg/kg IP Day −1,81.0 h
same,Mean Survival,[2]; 10 mg/kg IP Day −3,76.9 h
same,Median Survival,[2]; 10 mg/kg IP Day −3,73.4 h
same,Mean Survival,[2]; 10 mg/kg IP Day −5,67.2 h
same,Median Survival,[2]; 10 mg/kg IP Day −5,65.7 h
same,survival compared to micafungin one day before infection,[2]; 10 mg/kg and 20 mg/kg IP one day before infection,statistically greater survival
same,Mean Survival,[2]; 20 mg/kg IP Day −1,155.6 h
same,Median Survival,[2]; 20 mg/kg IP Day −1,72.3 h
same,Mean Survival,[2]; 20 mg/kg IP Day −3,91.9 h
same,Median Survival,[2]; 20 mg/kg IP Day −3,69.8 h
same,Mean Survival,[2]; 20 mg/kg IP Day −5,75.5 h
same,Median Survival,[2]; 20 mg/kg IP Day −5,69.8 h
same,Group Geometric mean,[2]; 5 mg/kg IP Day 0,5.65 × 10^4 CFU/g
same,Log10 Group Geometric mean,[2]; 5 mg/kg IP Day 0,4.75 CFU/g
same,Log10 reduction from vehicle control,[2]; 5 mg/kg IP Day 0,−0.98 CFU/g
same,Group Geometric mean,[2]; 5 mg/kg IP Day −1,3.75 × 10^4 CFU/g
same,Log10 Group Geometric mean,[2]; 5 mg/kg IP Day −1,4.57 CFU/g
same,Log10 reduction from vehicle control,[2]; 5 mg/kg IP Day −1,−0.80 CFU/g
same,Group Geometric mean,[2]; 5 mg/kg IP Day −3,5.71 × 10^4 CFU/g
same,Log10 Group Geometric mean,[2]; 5 mg/kg IP Day −3,4.76 CFU/g
same,Log10 reduction from vehicle control,[2]; 5 mg/kg IP Day −3,−0.98 CFU/g
same,Group Geometric mean,[2]; 5 mg/kg IP Day −5,6.36 × 10^4 CFU/g
same,Log10 Group Geometric mean,[2]; 5 mg/kg IP Day −5,4.80 CFU/g
same,Log10 reduction from vehicle control,[2]; 5 mg/kg IP Day −5,−1.03 CFU/g
same,Group Geometric mean,[2]; 10 mg/kg IP Day −1,5.17 × 10^3 CFU/g
same,Log10 Group Geometric mean,[2]; 10 mg/kg IP Day −1,3.71 CFU/g
same,Log10 reduction from vehicle control,[2]; 10 mg/kg IP Day −1,0.06 CFU/g
same,Group Geometric mean,[2]; 10 mg/kg IP Day −3,7.34 × 10^3 CFU/g
same,Log10 Group Geometric mean,[2]; 10 mg/kg IP Day −3,3.87 CFU/g
same,Log10 reduction from vehicle control,[2]; 10 mg/kg IP Day −3,−0.09 CFU/g
same,Group Geometric mean,[2]; 10 mg/kg IP Day −5,3.40 × 10^4 CFU/g
same,Log10 Group Geometric mean,[2]; 10 mg/kg IP Day −5,4.53 CFU/g
same,Log10 reduction from vehicle control,[2]; 10 mg/kg IP Day −5,−0.76 CFU/g
same,Group Geometric mean,[2]; 20 mg/kg IP Day −1,1.12 × 10^4 CFU/g
same,Log10 Group Geometric mean,[2]; 20 mg/kg IP Day −1,4.05 CFU/g
same,Log10 reduction from vehicle control,[2]; 20 mg/kg IP Day −1,−0.28 CFU/g
same,Group Geometric mean,[2]; 20 mg/kg IP Day −3,4.92 × 10^4 CFU/g
same,Log10 Group Geometric mean,[2]; 20 mg/kg IP Day −3,4.69 CFU/g
same,Log10 reduction from vehicle control,[2]; 20 mg/kg IP Day −3,−0.92 CFU/g
same,Group Geometric mean,[2]; 20 mg/kg IP Day −5,8.35 × 10^3 CFU/g
same,Log10 Group Geometric mean,[2]; 20 mg/kg IP Day −5,3.92 CFU/g
same,Log10 reduction from vehicle control,[2]; 20 mg/kg IP Day −5,−0.15 CFU/g
